We go through 12 molecules from ChEMBL document CHEMBL4402560, “Sarco/Endoplasmic Reticulum Calcium ATPase Inhibitors: Beyond Anticancer Perspective” (J Med Chem, 2020).

Test [1] can be described thus: Competitive inhibition of SERCA (unknown origin) by liquid scintillation counting method. Also noted: species or system Homo sapiens.
Test [2] concerns the target Sodium/potassium-transporting ATPase. Put plainly: Competitive inhibition of Sodium/potassium-transporting ATPase (unknown origin) by liquid scintillation counting method. Type of test: protein-complex assay, Homo sapiens.
Test [3] deals with T1, Sarcoplasmic/endoplasmic reticulum calcium ATPase 1 (Oryctolagus cuniculus, UniProt P04191). Put plainly: Inhibition of rabbit skeletal muscle microsomes SERCA1a.
T1 sequence (P04191 whole entry): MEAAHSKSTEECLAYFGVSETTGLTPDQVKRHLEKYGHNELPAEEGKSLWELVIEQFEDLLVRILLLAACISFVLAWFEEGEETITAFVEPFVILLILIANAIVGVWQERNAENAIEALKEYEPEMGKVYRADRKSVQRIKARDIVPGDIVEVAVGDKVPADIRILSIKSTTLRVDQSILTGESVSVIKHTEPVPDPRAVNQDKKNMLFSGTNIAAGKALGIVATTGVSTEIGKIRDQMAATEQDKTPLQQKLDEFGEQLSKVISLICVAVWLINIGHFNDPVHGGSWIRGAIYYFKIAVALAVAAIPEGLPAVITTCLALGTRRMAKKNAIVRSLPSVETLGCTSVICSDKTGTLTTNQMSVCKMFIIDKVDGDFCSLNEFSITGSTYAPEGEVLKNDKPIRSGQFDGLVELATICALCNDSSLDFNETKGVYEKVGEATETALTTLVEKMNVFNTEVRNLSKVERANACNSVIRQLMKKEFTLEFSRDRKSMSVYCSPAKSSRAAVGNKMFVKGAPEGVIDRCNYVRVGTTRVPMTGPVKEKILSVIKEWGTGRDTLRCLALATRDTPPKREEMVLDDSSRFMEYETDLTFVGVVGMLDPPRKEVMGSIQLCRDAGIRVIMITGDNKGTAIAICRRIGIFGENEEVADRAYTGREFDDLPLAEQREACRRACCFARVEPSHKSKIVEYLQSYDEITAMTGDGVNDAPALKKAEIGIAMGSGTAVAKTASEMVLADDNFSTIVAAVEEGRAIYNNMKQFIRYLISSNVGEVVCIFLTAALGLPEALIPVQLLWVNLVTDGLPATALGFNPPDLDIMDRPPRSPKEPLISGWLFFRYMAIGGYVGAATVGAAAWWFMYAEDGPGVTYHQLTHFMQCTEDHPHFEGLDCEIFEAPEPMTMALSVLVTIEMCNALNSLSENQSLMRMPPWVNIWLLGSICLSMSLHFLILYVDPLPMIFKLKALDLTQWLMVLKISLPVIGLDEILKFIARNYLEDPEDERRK
Test [4] can be described thus: Inhibition of SERCA in chicken cerebellar microsomes. Also noted: species or system Gallus gallus, Cerebellum.
Test [5] concerns the target Sarcoplasmic/endoplasmic reticulum calcium ATPase 2 (Mus musculus) (UniProt O55143). Put plainly: Inhibition of SERCA2 in C57BL/6 mouse primary neurons at 30 uM by UV-Vis spectrophotometric method relative to control.
Test [6] is described as follows: Inhibition of SERCA (unknown origin). Further details: species or system Homo sapiens.
The target of test [7] is Sarcoplasmic/endoplasmic reticulum calcium ATPase 1 (Mus musculus) (UniProt Q8R429). Put plainly: Inhibition of SERCA1 in C57BL/6 mouse primary neurons at 30 uM by UV-Vis spectrophotometric method relative to control.
In a further test the test system is HeLa. Put plainly: Antiproliferative activity against human HeLa cells. The test is classed as functional, cell-based.
The nature of test [8]: Inhibition of SERCA in human PC3 cell microsomes by enzyme-coupled method.
Test [9] deals with T1, Sarcoplasmic/endoplasmic reticulum calcium ATPase 1. Put plainly: Inhibition of rabbit SERCA1a incubated for 10 mins by enzyme-coupled method.
For a further test, the species on record is Sus scrofa domesticus. Put plainly: Inhibition of Porcine cerebellar microsomes SERCA at 200 uM preincubated for 10 mins followed by addition of ATP and measured after 10 mins by colorimetric method relative to control. The settings on record: Cerebellum.
Test [10] in a line: Inhibition of Porcine cardiac microsomes SERCA preincubated for 10 mins followed by addition of ATP and measured after 10 mins by colorimetric method. Also noted: species or system Sus scrofa domesticus, Heart.
Test [11] deals with T1, Sarcoplasmic/endoplasmic reticulum calcium ATPase 1. Put plainly: Inhibition of rabbit SERCA1a preincubated for 10 mins followed by addition of ATP and measured after 10 mins by colorimetric method.
Test [12] in a line: Inhibition of Porcine cerebellar microsomes SERCA preincubated for 10 mins followed by addition of ATP and measured after 10 mins by colorimetric method. Further details: species or system Sus scrofa domesticus, Cerebellum.
Test [13] concerns the target T1, Sarcoplasmic/endoplasmic reticulum calcium ATPase 1. Put plainly: Inhibition of rabbit skeletal muscle microsomes SERCA1a incubated for 10 mins by enzyme-coupled method.
Test [14] is described as follows: Inhibition of rabbit skeletal muscle microsomes SERCA incubated for 3 mins by [gamma32P]ATP based radiometric assay. Further details: species or system Oryctolagus cuniculus.
Test [15] addresses Sarcoplasmic/endoplasmic reticulum calcium ATPase 1 (Homo sapiens, UniProt O14983). Put plainly: Inhibition of SERCA1a (unknown origin) incubated for 10 mins by enzyme-coupled method.
Test [16] in a line: Inhibition of porcine cerebellar microsomes SERCA2b incubated for 10 mins by enzyme-coupled method. Further details: species or system Sus scrofa domesticus, Cerebellum.
The nature of test [17]: Inhibition of SERCA2a in porcine cardiac microsomes. Also noted: species or system Sus scrofa domesticus, Heart.
The species named for test [18] is Oryctolagus cuniculus. Put plainly: Inhibition of rabbit kidney Sodium/potassium-transporting ATPase by malachite green based colorimetric method.
For test [19], the target named is Potassium-transporting ATPase (Sus scrofa, UniProt P19156). Put plainly: Inhibition of pig gastric mucosa Potassium-transporting ATPase by malachite green based colorimetric method. The test is classed as protein-complex assay, Sus scrofa domesticus.
Potassium-transporting ATPase, sequence (P18434 whole entry): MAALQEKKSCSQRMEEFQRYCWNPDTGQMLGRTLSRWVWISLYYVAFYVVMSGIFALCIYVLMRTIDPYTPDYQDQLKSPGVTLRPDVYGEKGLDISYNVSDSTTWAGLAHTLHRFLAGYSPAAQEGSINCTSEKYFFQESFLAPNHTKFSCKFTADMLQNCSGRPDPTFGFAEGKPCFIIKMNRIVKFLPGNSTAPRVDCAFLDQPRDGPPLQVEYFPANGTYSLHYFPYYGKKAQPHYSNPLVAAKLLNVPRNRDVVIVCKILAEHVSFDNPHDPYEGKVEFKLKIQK
Potassium-transporting ATPase, sequence (P19156 whole entry): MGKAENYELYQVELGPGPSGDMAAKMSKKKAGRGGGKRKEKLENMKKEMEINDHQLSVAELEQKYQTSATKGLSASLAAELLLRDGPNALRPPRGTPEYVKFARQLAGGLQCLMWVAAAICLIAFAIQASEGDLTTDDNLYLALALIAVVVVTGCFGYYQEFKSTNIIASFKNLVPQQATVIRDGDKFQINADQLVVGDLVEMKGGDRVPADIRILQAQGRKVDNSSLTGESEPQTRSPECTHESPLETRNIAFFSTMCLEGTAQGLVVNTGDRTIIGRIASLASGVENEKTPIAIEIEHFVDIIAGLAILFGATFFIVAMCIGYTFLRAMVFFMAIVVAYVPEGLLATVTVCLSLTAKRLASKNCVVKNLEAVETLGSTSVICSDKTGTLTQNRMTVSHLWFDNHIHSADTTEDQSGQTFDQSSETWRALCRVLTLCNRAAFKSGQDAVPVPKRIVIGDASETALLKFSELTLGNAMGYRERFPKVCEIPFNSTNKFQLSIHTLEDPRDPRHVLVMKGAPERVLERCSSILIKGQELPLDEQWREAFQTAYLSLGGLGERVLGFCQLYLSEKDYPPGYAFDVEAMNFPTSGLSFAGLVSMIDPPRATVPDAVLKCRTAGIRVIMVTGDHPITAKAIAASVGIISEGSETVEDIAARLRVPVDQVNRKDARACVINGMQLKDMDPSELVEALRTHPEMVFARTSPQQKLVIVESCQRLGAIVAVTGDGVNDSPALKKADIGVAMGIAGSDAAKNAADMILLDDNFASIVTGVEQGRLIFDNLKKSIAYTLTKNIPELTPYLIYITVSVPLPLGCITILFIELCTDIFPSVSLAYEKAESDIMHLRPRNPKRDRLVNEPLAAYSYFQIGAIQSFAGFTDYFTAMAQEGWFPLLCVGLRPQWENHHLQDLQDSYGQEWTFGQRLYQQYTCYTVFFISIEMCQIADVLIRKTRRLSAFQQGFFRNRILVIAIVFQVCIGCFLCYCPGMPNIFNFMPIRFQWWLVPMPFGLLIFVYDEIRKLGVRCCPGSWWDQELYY
The species named for test [20] is Oryctolagus cuniculus. Put plainly: Inhibition of rabbit kidney Sodium/potassium-transporting ATPase by PK/LDH method.
For test [21], the target named is Sarcoplasmic/endoplasmic reticulum calcium ATPase 2 (Mus musculus, UniProt O55143). Put plainly: Inhibition of SERCA2b in mouse testicular microsomes. Further details: species or system Testis.
Sarcoplasmic/endoplasmic reticulum calcium ATPase 2, sequence (O55143 whole entry): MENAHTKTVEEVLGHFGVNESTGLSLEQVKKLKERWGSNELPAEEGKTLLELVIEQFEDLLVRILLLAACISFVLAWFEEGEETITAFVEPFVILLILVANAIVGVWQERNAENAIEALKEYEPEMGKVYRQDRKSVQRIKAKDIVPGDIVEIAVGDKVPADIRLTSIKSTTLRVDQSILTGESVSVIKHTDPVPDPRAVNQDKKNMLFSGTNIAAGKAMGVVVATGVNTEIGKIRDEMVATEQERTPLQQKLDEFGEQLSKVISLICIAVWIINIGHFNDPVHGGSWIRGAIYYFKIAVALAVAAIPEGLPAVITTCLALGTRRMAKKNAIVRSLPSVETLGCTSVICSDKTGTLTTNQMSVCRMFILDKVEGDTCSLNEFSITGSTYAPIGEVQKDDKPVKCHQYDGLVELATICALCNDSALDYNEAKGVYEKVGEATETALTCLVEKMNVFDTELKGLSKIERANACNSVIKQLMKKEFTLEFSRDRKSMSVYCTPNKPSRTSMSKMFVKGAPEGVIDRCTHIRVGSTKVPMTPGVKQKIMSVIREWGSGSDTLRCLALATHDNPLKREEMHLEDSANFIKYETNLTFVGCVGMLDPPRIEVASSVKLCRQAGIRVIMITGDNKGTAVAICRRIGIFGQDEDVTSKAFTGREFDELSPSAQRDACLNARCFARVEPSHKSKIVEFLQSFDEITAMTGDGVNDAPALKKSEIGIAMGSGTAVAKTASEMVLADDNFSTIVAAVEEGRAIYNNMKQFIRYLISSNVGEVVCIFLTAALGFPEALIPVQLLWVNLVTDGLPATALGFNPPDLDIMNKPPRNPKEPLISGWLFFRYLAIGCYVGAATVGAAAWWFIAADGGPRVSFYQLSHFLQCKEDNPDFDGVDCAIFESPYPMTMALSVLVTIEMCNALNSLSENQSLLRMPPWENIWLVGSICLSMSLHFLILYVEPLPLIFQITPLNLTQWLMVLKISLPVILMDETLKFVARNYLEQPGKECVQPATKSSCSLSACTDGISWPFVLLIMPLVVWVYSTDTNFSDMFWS
Test [22] deals with T1, Sarcoplasmic/endoplasmic reticulum calcium ATPase 1. Put plainly: Inhibition of SERCA1a in rabbit microsomes.
A short description of test [23]: Inhibition of fish liver microsomes SERCA by enzyme-coupled method. Also noted: species or system Squalius cephalus.
For test [24], the target named is T1, Sarcoplasmic/endoplasmic reticulum calcium ATPase 1. Put plainly: Inhibition of rabbit SERCA1a.
The target in test [25] is Sarcoplasmic/endoplasmic reticulum calcium ATPase 3 (Mus musculus, UniProt Q64518). Put plainly: Inhibition of SERCA3 in mouse testicular microsomes. Further details: species or system Testis.
Sarcoplasmic/endoplasmic reticulum calcium ATPase 3, sequence (Q64518 whole entry): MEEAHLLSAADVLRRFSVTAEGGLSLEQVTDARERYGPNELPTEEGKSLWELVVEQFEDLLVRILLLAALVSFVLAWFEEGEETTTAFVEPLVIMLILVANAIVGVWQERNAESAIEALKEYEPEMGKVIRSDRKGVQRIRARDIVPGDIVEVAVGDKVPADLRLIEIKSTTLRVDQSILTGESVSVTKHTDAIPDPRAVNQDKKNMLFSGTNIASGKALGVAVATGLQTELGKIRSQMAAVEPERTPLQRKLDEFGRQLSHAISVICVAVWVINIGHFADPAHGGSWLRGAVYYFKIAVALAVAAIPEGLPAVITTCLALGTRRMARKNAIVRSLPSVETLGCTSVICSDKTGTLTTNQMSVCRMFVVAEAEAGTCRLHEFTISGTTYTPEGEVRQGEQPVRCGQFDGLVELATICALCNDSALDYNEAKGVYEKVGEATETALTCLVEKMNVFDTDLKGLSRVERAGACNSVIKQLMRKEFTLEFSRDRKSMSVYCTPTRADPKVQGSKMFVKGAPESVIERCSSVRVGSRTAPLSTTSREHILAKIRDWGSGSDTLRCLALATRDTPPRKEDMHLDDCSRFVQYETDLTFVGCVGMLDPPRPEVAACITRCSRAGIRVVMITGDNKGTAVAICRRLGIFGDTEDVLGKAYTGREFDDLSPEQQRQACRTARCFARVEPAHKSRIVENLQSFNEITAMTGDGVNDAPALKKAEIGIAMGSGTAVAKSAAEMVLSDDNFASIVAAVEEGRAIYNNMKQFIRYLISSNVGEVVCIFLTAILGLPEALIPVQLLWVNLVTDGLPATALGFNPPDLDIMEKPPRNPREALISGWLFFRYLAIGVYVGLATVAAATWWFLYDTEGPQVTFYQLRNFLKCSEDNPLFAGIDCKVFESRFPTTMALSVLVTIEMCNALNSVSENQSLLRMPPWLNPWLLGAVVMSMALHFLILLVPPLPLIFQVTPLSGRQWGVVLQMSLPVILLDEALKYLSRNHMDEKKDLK
Test [26] is described as follows: Inhibition of Sodium/potassium-transporting ATPase in guinea pig heart peincubated for 5 mins followed by addition of ATP and measured after 15 mins. Type of test: tissue-based, Cavia porcellus.
The nature of test [27]: Inhibition of Sodium/potassium-transporting ATPase in guinea pig brain peincubated for 5 mins followed by addition of ATP and measured after 15 mins. The test is classed as tissue-based, Cavia porcellus.
Test [28] in a line: Inhibition of Sodium/potassium-transporting ATPase in porcine brain peincubated for 5 mins followed by addition of ATP and measured after 15 mins. The test is classed as tissue-based, Sus scrofa domesticus.
Test [29] can be described thus: Inhibition of Sodium/potassium-transporting ATPase in dog kidney peincubated for 5 mins followed by addition of ATP and measured after 15 mins. The test is classed as tissue-based, Canis lupus familiaris.

Sarcoplasmic/endoplasmic reticulum calcium ATPase 2 (Mus musculus), sequence (O55143 whole entry): as the sequence (O55143 whole entry) above

In the case of `N=C(N)SCc1cc(CSC(=N)N)c(Br)c(CSC(=N)N)c1Br`, the inhibition constant Ki in test [1] was 20 µM; in test [2] it was 0.32 µM. Besides, the IC50 in test [3] came to 29 µM.

Regarding SODIUM ORTHOVANAD, in test [4], the IC50 fell in the range of 10 to 100 µM.

For the molecule `C[C@H]1O[C@@H](O[C@H]2CC[C@@]3(C)[C@@H](CC[C@]4(C)[C@@H]3C=C[C@]35OC[C@@]6(CCC(C)(C)C[C@H]63)[C@H](O)C[C@]54C)[C@]2(C)CO)[C@H](O)[C@@H](O[C@@H]2O[C@H](CO)[C@@H](O)[C@H](O)[C@H]2O)[C@H]1O`, the results for the inhibition in [5] and in test [7] were 18% and 10%, respectively. Further, the IC50 in test [6] was found to be 50 µM; in the test with HeLa, 10 µM.

`Cc1ccc(-c2cc(C(F)(F)F)nn2-c2ccc(S(N)(=O)=O)cc2)cc1` [CELECOXIB] had an IC50 in test [8] of 32 µM.

As to `C/C=C(\C)C(=O)O[C@@H]1C[C@H]2C(=C1C)[C@@H]1OC(=O)[C@@](C)(O)[C@@]1(O)[C@@H](OC(=O)[C@H](C)CC)C[C@@]2(C)OC(C)=O`, in test [9], the IC50 came to 20 µM.

As to `CO[C@H]1C[C@@H]2CC[C@@H](C)[C@@](O)(O2)C(=O)C(=O)N2CCCC[C@H]2C(=O)O[C@H]([C@H](C)C[C@@H]2CC[C@@H](O)[C@H](OC)C2)CC(=O)[C@H](C)/C=C(\C)[C@@H](O)[C@@H](OC)C(=O)[C@H](C)C[C@H](C)/C=C/C=C/C=C/1C` [SIROLIMUS], the inhibition in the test filed under Sus scrofa domesticus is 80%. Moreover, the IC50 in [10], in test [11] and in test [12] was 77 µM in each case.

With `COc1ccc2c(c[n+](C)c3c4cc5c(cc4ccc23)OCO5)c1OC` [CHELERYTHRINE], the IC50 was 1.2 µM in test [13], 1.5 µM in test [14] and 27 µM in test [15].

On to `Clc1ccc(C(c2ccc(Cl)cc2)[n+]2ccn(CC(OCc3ccc(Cl)cc3Cl)c3ccc(Cl)cc3Cl)c2)cc1` (centres undefined) [CALMIDAZOLIUM CHLORIDE], for which the IC50 in [13] and in [16] was 0.5 µM each time.

For `O=C1CSC(c2ccccc2Cl)c2cc(Cl)ccc2N1` (centres undefined), the half-inhibitory concentration (IC50) in test [17] was 9.9 µM; in test [3], 6.6 µM.

For `Clc1ccccc1C(c1ccccc1)(c1ccccc1)n1ccnc1` [CLOTRIMAZOLE], the K0.5 in the test filed under Oryctolagus cuniculus [18] and in the test filed under Oryctolagus cuniculus [20] was 24 to 30 µM in each case. The IC50 in test [19] was 5.2 µM.

With `CCCCCCCCCc1ccc(O)cc1` [4-NONYLPHENOL], the IC50 in test [21] was 0.35 to 6 µM; in [22] it was 0.35 to 6 µM; in test [23], 4 µM; in test [24], 0.35 to 6 µM; in [25], 0.35 to 6 µM.

As for `CC1=CCC[C@@H]2[C@@](C)(CC/C(C)=C/Cn3c[n+](C)c4ncnc(N)c43)[C@H](C)CC[C@@]12C`, the half-maximal inhibitory concentration (IC50) was 11 to 29 µM in test [26]; 5.58 µM in test [6]; 11 to 29 µM in test [27]; 11 to 29 µM in test [28]; 11 to 29 µM in [29].
